Laboratory results as given in ChEMBL document CHEMBL5360672, “Identification of Novel Dual-Target Estrogen Receptor α Degraders with Tubulin Inhibitory Activity for the Treatment of Endocrine-Resistant Breast Cancer” (J Med Chem, 2023).
Active and inactive are the calls of the source. The rule behind the calls is not given here.

Target: T1, Estrogen receptor (Homo sapiens) (UniProt P03372)
T1 sequence (whole entry): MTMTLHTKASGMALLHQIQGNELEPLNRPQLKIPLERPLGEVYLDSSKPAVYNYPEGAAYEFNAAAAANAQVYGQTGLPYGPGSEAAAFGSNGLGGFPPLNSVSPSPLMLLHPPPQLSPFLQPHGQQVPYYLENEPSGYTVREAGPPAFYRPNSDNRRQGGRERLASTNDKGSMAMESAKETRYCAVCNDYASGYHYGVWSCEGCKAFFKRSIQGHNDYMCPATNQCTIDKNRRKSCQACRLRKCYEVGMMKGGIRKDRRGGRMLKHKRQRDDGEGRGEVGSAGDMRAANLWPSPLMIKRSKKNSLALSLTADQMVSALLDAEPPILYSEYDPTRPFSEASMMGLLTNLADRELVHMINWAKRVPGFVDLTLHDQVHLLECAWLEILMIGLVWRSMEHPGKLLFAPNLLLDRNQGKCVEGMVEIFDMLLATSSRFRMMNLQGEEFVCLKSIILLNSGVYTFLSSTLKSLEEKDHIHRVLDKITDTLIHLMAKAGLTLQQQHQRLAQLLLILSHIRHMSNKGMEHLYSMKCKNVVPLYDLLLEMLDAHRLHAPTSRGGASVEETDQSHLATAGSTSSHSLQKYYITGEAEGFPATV
Assay: Binding affinity to human ERalpha assessed as relative binding affinity incubated under vibration for 1 min followed by 2 hrs incubation under dark condition by fluorescence polarization assay relative to estradiol
Details: time 121.0 min

Compared with CCN(c1cccc(OC)c1)S(=O)(=O)C1CC2OC1C(c1ccc(NC(=O)CCCCC[Se]C#N)cc1)=C2c1ccc(O)cc1 (centres undefined), CCN(c1ccccc1OC)S(=O)(=O)C1CC2OC1C(c1ccc(NC(=O)CCCCC[Se]C#N)cc1)=C2c1ccc(O)cc1 (centres undefined) is higher in RBA: 0.51% for the first, 2.82% for the second.

Compared with CCN(c1ccc(Cl)cc1)S(=O)(=O)C1CC2OC1C(c1ccc(NC(=O)CCCCC[Se]C#N)cc1)=C2c1ccc(O)cc1 (centres undefined), N#C[Se]CCCCCC(=O)Nc1ccc(C2=C(c3ccc(O)cc3)C3CC(S(=O)(=O)Oc4ccc(Cl)cc4)C2O3)cc1 (centres undefined) is lower in RBA: 2.31% for the first, 0.6% for the second.

Compared with COc1cccc(OS(=O)(=O)C2CC3OC2C(c2ccc(NC(=O)CCCCC[Se]C#N)cc2)=C3c2ccc(O)cc2)c1 (centres undefined), N#C[Se]CCCCCC(=O)Nc1ccc(C2=C(c3ccc(O)cc3)C3CC(S(=O)(=O)Oc4ccccc4)C2O3)cc1 (centres undefined) is lower in RBA: 12.1% for the first, 4.72% for the second.

Target: Estrogen receptor beta (Homo sapiens) (UniProt Q92731)
Assay: Binding affinity to human ERbeta assessed as relative binding affinity incubated under vibration for 1 min followed by 2 hrs incubation under dark condition by fluorescence polarization assay relative to estradiol
Details: time 121.0 min

Estrogen receptor beta (Homo sapiens), sequence (Q92731 whole entry): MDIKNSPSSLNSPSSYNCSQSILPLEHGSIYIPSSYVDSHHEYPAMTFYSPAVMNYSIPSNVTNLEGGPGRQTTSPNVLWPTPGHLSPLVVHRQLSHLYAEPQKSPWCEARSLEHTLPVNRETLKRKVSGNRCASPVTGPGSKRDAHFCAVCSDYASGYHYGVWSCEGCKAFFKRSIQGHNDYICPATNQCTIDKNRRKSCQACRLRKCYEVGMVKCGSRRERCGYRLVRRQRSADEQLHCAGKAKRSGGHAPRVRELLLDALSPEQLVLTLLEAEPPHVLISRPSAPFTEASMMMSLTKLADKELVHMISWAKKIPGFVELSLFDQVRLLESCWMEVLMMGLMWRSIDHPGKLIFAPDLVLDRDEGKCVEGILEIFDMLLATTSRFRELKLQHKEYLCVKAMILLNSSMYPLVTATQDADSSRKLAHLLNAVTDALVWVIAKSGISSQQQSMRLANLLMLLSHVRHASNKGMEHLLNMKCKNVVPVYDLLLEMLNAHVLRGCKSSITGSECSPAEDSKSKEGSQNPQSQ

Compared with CCN(c1cccc(OC)c1)S(=O)(=O)C1CC2OC1C(c1ccc(NC(=O)CCCCC[Se]C#N)cc1)=C2c1ccc(O)cc1 (centres undefined), CCN(c1ccccc1OC)S(=O)(=O)C1CC2OC1C(c1ccc(NC(=O)CCCCC[Se]C#N)cc1)=C2c1ccc(O)cc1 (centres undefined) is lower in RBA: 0.2% for the first, 0.03% for the second.

First: CCN(c1ccc(Cl)cc1)S(=O)(=O)C1CC2OC1C(c1ccc(NC(=O)CCCCC[Se]C#N)cc1)=C2c1ccc(O)cc1 (centres undefined)
Second: N#C[Se]CCCCCC(=O)Nc1ccc(C2=C(c3ccc(O)cc3)C3CC(S(=O)(=O)Oc4ccc(Cl)cc4)C2O3)cc1 (centres undefined)
The RBA of the first is lower: 0.06% for the first, 2.64% for the second.

First: COc1cccc(OS(=O)(=O)C2CC3OC2C(c2ccc(NC(=O)CCCCC[Se]C#N)cc2)=C3c2ccc(O)cc2)c1 (centres undefined)
Second: N#C[Se]CCCCCC(=O)Nc1ccc(C2=C(c3ccc(O)cc3)C3CC(S(=O)(=O)Oc4ccccc4)C2O3)cc1 (centres undefined)
The RBA of the first is lower: 0.35% for the first, 0.78% for the second.

Species on record: Homo sapiens
Assay: Selectivity ratio of relative binding affinity for human ERalpha to relative binding affinity to human ERbeta
Details: not given

Compared with CCN(c1cccc(OC)c1)S(=O)(=O)C1CC2OC1C(c1ccc(NC(=O)CCCCC[Se]C#N)cc1)=C2c1ccc(O)cc1 (centres undefined), CCN(c1ccccc1OC)S(=O)(=O)C1CC2OC1C(c1ccc(NC(=O)CCCCC[Se]C#N)cc1)=C2c1ccc(O)cc1 (centres undefined) is higher in Selectivity ratio: 2.55 for the first, 94 for the second.

First: CCN(c1ccc(Cl)cc1)S(=O)(=O)C1CC2OC1C(c1ccc(NC(=O)CCCCC[Se]C#N)cc1)=C2c1ccc(O)cc1 (centres undefined)
Second: N#C[Se]CCCCCC(=O)Nc1ccc(C2=C(c3ccc(O)cc3)C3CC(S(=O)(=O)Oc4ccc(Cl)cc4)C2O3)cc1 (centres undefined)
The Selectivity ratio of the first is higher: 38.5 for the first, 0.23 for the second.

First: COc1cccc(OS(=O)(=O)C2CC3OC2C(c2ccc(NC(=O)CCCCC[Se]C#N)cc2)=C3c2ccc(O)cc2)c1 (centres undefined)
Second: N#C[Se]CCCCCC(=O)Nc1ccc(C2=C(c3ccc(O)cc3)C3CC(S(=O)(=O)Oc4ccccc4)C2O3)cc1 (centres undefined)
The Selectivity ratio of the first is higher: 34.7 for the first, 6.05 for the second.

Tested on: MCF7
Assay: Antiproliferative activity against ERalpha positive human MCF7 cells assessed as inhibition of cell proliferation incubated for 72 hrs by CCK8 assay
Type: functional, cell-based
Details: MCF7, 72 h

First: CCN(c1cccc(OC)c1)S(=O)(=O)C1CC2OC1C(c1ccc(NC(=O)CCCCC[Se]C#N)cc1)=C2c1ccc(O)cc1 (centres undefined)
Second: CCN(c1ccccc1OC)S(=O)(=O)C1CC2OC1C(c1ccc(NC(=O)CCCCC[Se]C#N)cc1)=C2c1ccc(O)cc1 (centres undefined)
The IC50 of the first is 6.7-fold higher: 2.81 µM for the first, 0.42 µM for the second. The second is the more potent here.

Compared with CCN(c1ccc(Cl)cc1)S(=O)(=O)C1CC2OC1C(c1ccc(NC(=O)CCCCC[Se]C#N)cc1)=C2c1ccc(O)cc1 (centres undefined), N#C[Se]CCCCCC(=O)Nc1ccc(C2=C(c3ccc(O)cc3)C3CC(S(=O)(=O)Oc4ccc(Cl)cc4)C2O3)cc1 (centres undefined) is 3-fold higher in IC50: 0.44 µM for the first, 1.32 µM for the second. The first is the more potent here.

Compared with COc1cccc(OS(=O)(=O)C2CC3OC2C(c2ccc(NC(=O)CCCCC[Se]C#N)cc2)=C3c2ccc(O)cc2)c1 (centres undefined), N#C[Se]CCCCCC(=O)Nc1ccc(C2=C(c3ccc(O)cc3)C3CC(S(=O)(=O)Oc4ccccc4)C2O3)cc1 (centres undefined) is 2-fold lower in IC50: 2.49 µM for the first, 1.22 µM for the second. The second is the more potent here.

Tested on: T47D
Assay: Antiproliferative activity against ERalpha positive human T47D cells assessed as inhibition of cell proliferation incubated for 72 hrs by CCK8 assay
Type: functional, cell-based
Details: not given

Going from CCN(c1cccc(OC)c1)S(=O)(=O)C1CC2OC1C(c1ccc(NC(=O)CCCCC[Se]C#N)cc1)=C2c1ccc(O)cc1 (centres undefined) to CCN(c1ccccc1OC)S(=O)(=O)C1CC2OC1C(c1ccc(NC(=O)CCCCC[Se]C#N)cc1)=C2c1ccc(O)cc1 (centres undefined), the IC50 falls from 14.2 µM to 3.93 µM (3.6-fold). The second is the more potent here.

First: CCN(c1ccc(Cl)cc1)S(=O)(=O)C1CC2OC1C(c1ccc(NC(=O)CCCCC[Se]C#N)cc1)=C2c1ccc(O)cc1 (centres undefined)
Second: N#C[Se]CCCCCC(=O)Nc1ccc(C2=C(c3ccc(O)cc3)C3CC(S(=O)(=O)Oc4ccc(Cl)cc4)C2O3)cc1 (centres undefined)
The IC50 of the first is 1.6-fold higher: 5.66 µM for the first, 3.52 µM for the second.

COc1cccc(OS(=O)(=O)C2CC3OC2C(c2ccc(NC(=O)CCCCC[Se]C#N)cc2)=C3c2ccc(O)cc2)c1 (centres undefined) and N#C[Se]CCCCCC(=O)Nc1ccc(C2=C(c3ccc(O)cc3)C3CC(S(=O)(=O)Oc4ccccc4)C2O3)cc1 (centres undefined) are the same in IC50: 3.21 µM for the first, 3.21 µM for the second.

Tested on: not listed separately
Assay: Cytotoxicity against human MCF-10A cells assessed as inhibition of cell proliferation incubated for 72 hrs by CCK8 assay
Type: toxicity, cell-based
Details: not given

Compared with CCN(c1cccc(OC)c1)S(=O)(=O)C1CC2OC1C(c1ccc(NC(=O)CCCCC[Se]C#N)cc1)=C2c1ccc(O)cc1 (centres undefined), CCN(c1ccccc1OC)S(=O)(=O)C1CC2OC1C(c1ccc(NC(=O)CCCCC[Se]C#N)cc1)=C2c1ccc(O)cc1 (centres undefined) is 5.8-fold lower in IC50 at 72 h: 91.5 µM for the first, 15.9 µM for the second.

Going from CCN(c1ccc(Cl)cc1)S(=O)(=O)C1CC2OC1C(c1ccc(NC(=O)CCCCC[Se]C#N)cc1)=C2c1ccc(O)cc1 (centres undefined) to N#C[Se]CCCCCC(=O)Nc1ccc(C2=C(c3ccc(O)cc3)C3CC(S(=O)(=O)Oc4ccc(Cl)cc4)C2O3)cc1 (centres undefined), the IC50 at 72 h falls from 29.2 µM to 11.8 µM (2.5-fold).

Going from COc1cccc(OS(=O)(=O)C2CC3OC2C(c2ccc(NC(=O)CCCCC[Se]C#N)cc2)=C3c2ccc(O)cc2)c1 (centres undefined) to N#C[Se]CCCCCC(=O)Nc1ccc(C2=C(c3ccc(O)cc3)C3CC(S(=O)(=O)Oc4ccccc4)C2O3)cc1 (centres undefined), the IC50 at 72 h rises from 19.9 µM to > 60 µM.

Tested on: not listed separately
Assay: Selectivity index, ratio of IC50 for cytotoxicity against human MCF-10A cells to IC50 for antiproliferative activity against human MCF7 cells
Type: toxicity, cell-based
Details: MCF-10A cells and MCF7 cells, read-out: Ratio IC50

Compared with CCN(c1cccc(OC)c1)S(=O)(=O)C1CC2OC1C(c1ccc(NC(=O)CCCCC[Se]C#N)cc1)=C2c1ccc(O)cc1 (centres undefined), CCN(c1ccccc1OC)S(=O)(=O)C1CC2OC1C(c1ccc(NC(=O)CCCCC[Se]C#N)cc1)=C2c1ccc(O)cc1 (centres undefined) is higher in selectivity ratio: 32.5 for the first, 37.9 for the second.

Going from CCN(c1ccc(Cl)cc1)S(=O)(=O)C1CC2OC1C(c1ccc(NC(=O)CCCCC[Se]C#N)cc1)=C2c1ccc(O)cc1 (centres undefined) to N#C[Se]CCCCCC(=O)Nc1ccc(C2=C(c3ccc(O)cc3)C3CC(S(=O)(=O)Oc4ccc(Cl)cc4)C2O3)cc1 (centres undefined), the selectivity ratio falls from 66.3 to 8.94.

First: COc1cccc(OS(=O)(=O)C2CC3OC2C(c2ccc(NC(=O)CCCCC[Se]C#N)cc2)=C3c2ccc(O)cc2)c1 (centres undefined)
Second: N#C[Se]CCCCCC(=O)Nc1ccc(C2=C(c3ccc(O)cc3)C3CC(S(=O)(=O)Oc4ccccc4)C2O3)cc1 (centres undefined)
The selectivity ratio of the first is lower: 7.99 for the first, > 49.2 for the second.

Tested on: not listed separately
Assay: Antiproliferative activity against human Tamoxifen-resistant LCC2 cells assessed as inhibition of cell proliferation incubated for 72 hrs by CCK8 assay
Type: functional, cell-based
Details: not given

First: CCN(c1cccc(OC)c1)S(=O)(=O)C1CC2OC1C(c1ccc(NC(=O)CCCCC[Se]C#N)cc1)=C2c1ccc(O)cc1 (centres undefined)
Second: CCN(c1ccccc1OC)S(=O)(=O)C1CC2OC1C(c1ccc(NC(=O)CCCCC[Se]C#N)cc1)=C2c1ccc(O)cc1 (centres undefined)
The IC50 of the first is 2-fold higher: 13.3 µM for the first, 6.56 µM for the second. The second is the more potent here.

Molecule CCN(c1ccc(Cl)cc1)S(=O)(=O)C1CC2OC1C(c1ccc(NC(=O)CCCCC[Se]C#N)cc1)=C2c1ccc(O)cc1 (centres undefined) has an IC50 of 4 µM.

Tested on: T47D
Assay: Antiproliferative activity against human T47D cells harboring ERalpha D538G mutant assessed as inhibition of cell proliferation incubated for 72 hrs by CCK8 assay
Type: functional, cell-based
Details: not given

Compared with CCN(c1cccc(OC)c1)S(=O)(=O)C1CC2OC1C(c1ccc(NC(=O)CCCCC[Se]C#N)cc1)=C2c1ccc(O)cc1 (centres undefined), CCN(c1ccccc1OC)S(=O)(=O)C1CC2OC1C(c1ccc(NC(=O)CCCCC[Se]C#N)cc1)=C2c1ccc(O)cc1 (centres undefined) is 3.6-fold lower in IC50: 19.8 µM for the first, 5.52 µM for the second.

With CCN(c1ccc(Cl)cc1)S(=O)(=O)C1CC2OC1C(c1ccc(NC(=O)CCCCC[Se]C#N)cc1)=C2c1ccc(O)cc1 (centres undefined) the IC50 was 6.76 µM.

Tested on: T47D
Assay: Antiproliferative activity against human T47D cells harboring ERalpha Y537S mutant assessed as inhibition of cell proliferation incubated for 72 hrs by CCK8 assay
Type: functional, cell-based
Details: not given

Compared with CCN(c1cccc(OC)c1)S(=O)(=O)C1CC2OC1C(c1ccc(NC(=O)CCCCC[Se]C#N)cc1)=C2c1ccc(O)cc1 (centres undefined), CCN(c1ccccc1OC)S(=O)(=O)C1CC2OC1C(c1ccc(NC(=O)CCCCC[Se]C#N)cc1)=C2c1ccc(O)cc1 (centres undefined) is 2.5-fold lower in IC50: 9.25 µM for the first, 3.69 µM for the second.

With CCN(c1ccc(Cl)cc1)S(=O)(=O)C1CC2OC1C(c1ccc(NC(=O)CCCCC[Se]C#N)cc1)=C2c1ccc(O)cc1 (centres undefined) the IC50 was 4.51 µM.

Target: T1, Estrogen receptor (Homo sapiens)
Assay: Induction of ERalpha degradation in human MCF7 cells at 5 uM incubated for 24 hrs by Western blot analysis relative to SeCN-OBHSA derivatives
Type: cell-based
Details: not given

With CCN(c1cccc(OC)c1)S(=O)(=O)C1CC2OC1C(c1ccc(NC(=O)CCCCC[Se]C#N)cc1)=C2c1ccc(O)cc1 (centres undefined) the Activity was “Active”.
For CCN(c1ccccc1OC)S(=O)(=O)C1CC2OC1C(c1ccc(NC(=O)CCCCC[Se]C#N)cc1)=C2c1ccc(O)cc1 (centres undefined), the Activity was “Active”.
In the case of CCN(c1ccc(Cl)cc1)S(=O)(=O)C1CC2OC1C(c1ccc(NC(=O)CCCCC[Se]C#N)cc1)=C2c1ccc(O)cc1 (centres undefined), the Activity is reported as “Active”.
